Assay results: patent publication US4992437A, “Thienodiazepine compounds and their pharmaceutical use” (Yoshitomi Pharmaceutical Industries, Ltd., priority 1987, dated 1991)
Where two headings read alike, the source gives them in different places.

How the values were obtained:
CCK receptor (pancreas) = molecular target: T1, CCK receptor (pancreas) (Canis lupus familiaris, UniProt Q5D0K2); assay: CCK receptor-binding, pancreas (125I-CCK-8); set-up: species or system male mongrel adult dog
T1 construct: from tissue; host or cells: dog pancreas membranes (whole pancreas, homogenized and centrifuged)
T1 sequence (Q5D0K2 1-428): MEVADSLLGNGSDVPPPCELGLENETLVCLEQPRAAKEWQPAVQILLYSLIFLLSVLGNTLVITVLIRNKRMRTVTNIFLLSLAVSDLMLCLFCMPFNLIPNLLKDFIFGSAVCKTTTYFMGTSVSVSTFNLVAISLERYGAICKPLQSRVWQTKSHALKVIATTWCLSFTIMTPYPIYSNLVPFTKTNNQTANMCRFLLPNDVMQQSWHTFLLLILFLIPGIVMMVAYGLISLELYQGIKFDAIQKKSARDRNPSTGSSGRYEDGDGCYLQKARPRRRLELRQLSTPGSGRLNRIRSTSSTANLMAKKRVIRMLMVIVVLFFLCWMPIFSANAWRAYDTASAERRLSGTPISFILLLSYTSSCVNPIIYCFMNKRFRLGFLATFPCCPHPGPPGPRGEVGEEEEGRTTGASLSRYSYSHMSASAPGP
Method: The entire pancreas of a male mongrel adult dog was extracted and the fat tissues thereof were removed. The residual portion was homogenized in 50 mM tris hydrochloride (pH 7.5) (Blinkman·Polytron PT20). After the filtration with nylon cloth (120 mesh) followed by centrifugation (50,000×g, for 12 minutes), the obtained sediment was homogenized in a tris buffer solution in the same manner as mentioned above and the homogenate was centrifuged. The obtained sediment was suspended in a buffer solution for binding assay (5 mM magnesium chloride, chloride, 5 mM dithiothreitol, 2 mg/ml bovine serum albumin, 0.1 mg/ml bacitracin, and 50 mM tris hydrochloride, pH 7.2), containing 0.14 mg/ml trypsin-inhibitor (soy bean), and the suspension was used as the receptor source.

CCK-8 = assay: Effects on gastric excreting capability (Gastric emptying test), CCK-8 challenge; assay type: in vivo, male ddY mice
Method: At 5 minutes' lapse thereafter, 0.1 ml of a 1.5% aqueous solution of methyl cellulose containing 0.05% phenolred (Sigma) was orally administered. After 15 minutes, the stomach was extracted and the gastric contents were mixed with a 10% aqueous solution of trichloroacetic acid. After the removal of the proteins, the residue was centrifuged at 3000 rpm for 10 minutes. To the supernatant was added a 1N solution of sodium hydroxide and the mixture was again centrifuged. Thereafter, OD560 value of the supernatant was measured by the spectrophotometer (Hitachi 200-10 type) to estimate the minimum effective dose (MED).

CCK receptor (brain) = molecular target: T2, CCK receptor (brain); assay: CCK receptor-binding, brain (125I-CCK-8)
T2 construct: Brain; from tissue
T2 sequence (P32239 whole entry): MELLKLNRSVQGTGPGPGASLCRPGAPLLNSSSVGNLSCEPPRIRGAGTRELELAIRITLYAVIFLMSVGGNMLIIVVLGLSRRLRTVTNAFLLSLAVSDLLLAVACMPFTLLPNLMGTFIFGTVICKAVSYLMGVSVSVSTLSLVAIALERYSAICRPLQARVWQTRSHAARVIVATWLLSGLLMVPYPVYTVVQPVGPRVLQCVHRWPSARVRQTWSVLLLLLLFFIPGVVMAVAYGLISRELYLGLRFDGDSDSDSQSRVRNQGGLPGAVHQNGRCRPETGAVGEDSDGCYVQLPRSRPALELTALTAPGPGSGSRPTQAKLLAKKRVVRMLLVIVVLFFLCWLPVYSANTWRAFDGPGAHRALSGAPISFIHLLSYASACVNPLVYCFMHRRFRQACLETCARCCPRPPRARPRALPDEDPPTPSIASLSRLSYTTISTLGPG

Acute toxicity test = assay type: in vivo; conditions: oral; 6 male mice; observed for consecutive 5 days
Text: The acute toxicity of the compounds of the present invention was studied with the use of 6 male mice.

[1] = pancreas membranes of dog, 125I-CCK-8, 20° C., 30 minutes, read-out: CCK binding, IC50 Pancreas

In the case of CCK-4, the IC50 (CCK receptor (pancreas); [1]) is reported as 800 nM.
`CN1C(=O)C(NC(=O)c2cc3ccccc3[nH]2)N=C(c2ccccc2)c2ccccc21` [Example L-364718, N-(2,3-Dihydro-1-methyl-2-oxo-5-phenyl-1H-1,4-benzodiazepin-3-yl)-1H-indole-2-carboxamide, reference compound] showed a minimal effective dose at 0.03 mg/kg (CCK-8; Mus musculus, po, 25 min, read-out: Gastric Emptying MED (minimum effective dose)) of 0.1 to 0.3 mg/kg.
Work on “CCK-8: CCK-8 which consists of the 8 amino acids at the C terminus of CCK” yielded an IC50 (CCK receptor (pancreas); [1]) of 0.6 nM.
In the case of `CCc1cc2c(s1)-n1c(C)nnc1C(NC(=O)c1cc3ccccc3[nH]1)N=C2c1ccccc1Cl` (stereo not shown) [Compound A, 4-(2-Chlorophenyl)-2-ethyl-6-(2-indolecarboxamido)-9-methyl-6H-thieno[3,2-f][1,2,4]triazolo[4,3-a][1,4]diazepine], the minimal effective dose at 0.03 mg/kg (CCK-8; Mus musculus, po, 25 min; read-out: Gastric Emptying MED (minimum effective dose)) is reported as 0.3 to 1 mg/kg, the IC50 (CCK receptor (pancreas)) is reported as 0.6 nM and the IC50 (CCK receptor (brain)) is reported as 1.8 nM. For the same compound, the acute toxicity (Acute toxicity test) was “low toxicity”.
